# Laboratory results from publication PMC9661478 (Journal of Medicinal Chemistry, 2022).
# What was measured:
# [1] = biological target: GDP-KRAS^G12C::SOS1 interaction (Homo sapiens, UniProt P01116, G12C); experiment: biochemical
# GP2D cells = experiment: GP2D proliferation assay; assay type: cell-based; conditions: KRAS^G12D mutation
# cleaved caspase 3 = experiment: Cleaved caspase-3 immunoassay; conditions: 40 mg/kg ip daily x3
# [2] = Body weight changes in the NCI-H358 efficacy study; conditions: both dose groups; less pronounced for the low dose group
# p-ERK = experiment: pERK1/2 immunoassay; conditions: 40 mg/kg ip daily x3
# LS513 cells = experiment: LS513 proliferation assay; assay type: cell-based; conditions: KRAS^G12D mutation
# GDP-KRAS^G12C::SOS1 interaction, sequence (P01116 1-169 isoform P01116-2 G12C limits assumed): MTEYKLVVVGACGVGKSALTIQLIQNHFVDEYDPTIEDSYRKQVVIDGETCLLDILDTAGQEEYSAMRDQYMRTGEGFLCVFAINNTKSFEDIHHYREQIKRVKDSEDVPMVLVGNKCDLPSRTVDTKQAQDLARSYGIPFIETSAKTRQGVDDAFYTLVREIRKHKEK
IC50 [1] [µM],Compound,"concentration above which antiproliferative effect was observed, GP2D cells (GP2D cells)",induction of apoptosis (cleaved caspase 3) detectable in treated samples (cleaved caspase 3; 2 h post-dose on day 3),induction of apoptosis (cleaved caspase 3) detectable in treated samples (cleaved caspase 3; 6 h post-dose on day 3),body weight change compared to vehicle [2],reduction of p-ERK levels (p-ERK; 2 h post last dose),reduction of p-ERK levels (p-ERK; 6 h post last dose),"concentration above which antiproliferative effect was observed, LS513 cells (LS513 cells)"
~3,"C=CC(=O)N1CCN(c2cccc(-c3noc([C@@]4(C)CCCc5sc(N)c(C#N)c54)n3)c2)CC1 [Compound 22, (4S)-2-Amino-4-methyl-4-(3-{3-[4-(prop-2-enoyl)piperazin-1-yl]phenyl}-1,2,4-oxadiazol-5-yl)-4,5,6,7-tetrahydro-1-benzothiophene-3-carbonitrile]",–,–,–,–,–,–,–
–,"C=CC(=O)N1CCN(c2cc(-c3noc([C@@]4(C)CCCc5sc(N)c(C#N)c54)n3)nc(N3CCN(C)C[C@@H]3C)c2)CC1 [BI-0474, (4S)-2-Amino-4-(3-{6-[(2S)-2,4-dimethylpiperazin-1-yl]-4-[4-(prop-2-enoyl)piperazin-1-yl]pyridin-2-yl}-1,2,4-oxadiazol-5-yl)-4-methyl-4,5,6,7-tetrahydro-1-benzothiophene-3-carbonitrile]",above 4 μM,one out of five,all five,some body weight loss,five-fold,six-fold,above 4 μM
